Values after ≈ are worked out from the molar mass of the structure shown.
Each compound was assayed on HEK-293T (assay: Cytotoxicity against human HEK293T cells assessed as reduction in cell viability at 50 ug/ml after 24 hrs by MTT assay). Conditions: not given.
Format: cell-based

Q: For CCCCCCc1cn(Cc2cc3c(nc2C)-c2ccccc2CCC3)nn1, which Activity is on record?
A: Non-Toxic

Q: Which Activity does the source give for Cc1cc2c(cc1C)-c1nc(C)c(Cn3cc(-c4cc5ccccc5c5ccccc45)nn3)cc1CCC2 here?
A: Non-Toxic

The compounds below were run on Mycobacterium tuberculosis (assay: Antitubercular activity against Mycobacterium tuberculosis H37Rv ATCC 27294 after 28 days by two-fold serial dilution method). Conditions: H37Rv ATCC 27294, 672 h.
Format: functional

Q: With NNC(=O)c1ccncc1 [ISONIAZID] as the compound, how does the MIC read?
A: 0.1 µg/mL (≈ 0.729 µM)

Q: For CCCCCc1ccc(-c2cn(Cc3cc4c(nc3C)-c3ccccc3CCC4)nn2)cc1, which MIC is on record?
A: 12.5 µg/mL (≈ 28.6 µM)

Q: With CCCCCCc1cn(Cc2cc3c(nc2C)-c2cc(C)c(C)cc2CCC3)nn1 as the compound, how does the MIC read?
A: 12.5 µg/mL (≈ 31 µM)

Q: For COc1cccc(-c2cn(Cc3cc4c(nc3C)-c3ccccc3CCC4)nn2)c1, which MIC is on record?
A: > 25 µg/mL

Q: With Cc1cc2c(cc1C)-c1nc(C)c(Cn3cc(-c4ccccc4)nn3)cc1CCC2 as the compound, how does the MIC read?
A: 25 µg/mL (≈ 63.4 µM)

Q: For CCCCCc1ccc(-c2cn(Cc3cc4c(nc3C)-c3cc(C)c(C)cc3CCC4)nn2)cc1, which MIC is on record?
A: > 25 µg/mL

Q: For COc1cccc(-c2cn(Cc3cc4c(nc3C)-c3cc(C)c(C)cc3CCC4)nn2)c1, which MIC is on record?
A: 25 µg/mL (≈ 58.9 µM)

Q: CCCCCCc1cn(Cc2cc3c(nc2C)-c2ccccc2CCC3)nn1 was tested. Which MIC did it give?
A: 1.56 µg/mL (≈ 4.17 µM)

Q: How did the MIC turn out when Cc1ccc(-c2cn(Cc3cc4c(nc3C)-c3ccccc3CCC4)nn2)cc1 was run?
A: 12.5 µg/mL (≈ 32.9 µM)

Q: How did the MIC turn out when CC[C@@H](CO)NCCN[C@@H](CC)CO [ETHAMBUTOL] was run?
A: 3.13 µg/mL (≈ 15.3 µM)

Q: Cc1cc2c(cc1C)-c1nc(C)c(Cn3cc(-c4ccccn4)nn3)cc1CCC2 was tested. Which MIC did it give?
A: 25 µg/mL (≈ 63.2 µM)

Q: Cc1cc2c(cc1C)-c1nc(C)c(Cn3cc(-c4cc5ccccc5c5ccccc45)nn3)cc1CCC2 was tested. Which MIC did it give?
A: 1.56 µg/mL (≈ 3.15 µM)

Q: Cc1nc2c(cc1Cn1cc(-c3cccnc3)nn1)CCCc1ccccc1-2 was tested. Which MIC did it give?
A: 6.25 µg/mL (≈ 17 µM)

Q: Cc1cc2c(cc1C)-c1nc(C)c(Cn3cc(-c4cccnc4)nn3)cc1CCC2 was tested. Which MIC did it give?
A: 6.25 µg/mL (≈ 15.8 µM)

Q: With Cc1nc2c(cc1Cn1cc(-c3cc4ccccc4c4ccccc34)nn1)CCCc1ccccc1-2 as the compound, how does the MIC read?
A: > 25 µg/mL

Q: Which MIC does the source give for CO[C@H]1/C=C/O[C@@]2(C)Oc3c(C)c(O)c4c(O)c(c(/C=N/N5CCN(C)CC5)c(O)c4c3C2=O)NC(=O)/C(C)=C\C=C\[C@H](C)[C@H](O)[C@@H](C)[C@@H](O)[C@@H](C)[C@H](OC(C)=O)[C@@H]1C [RIFAMPIN] here?
A: 0.2 µg/mL (≈ 0.243 µM)

Q: How did the MIC turn out when COc1ccc2cc(-c3cn(Cc4cc5c(nc4C)-c4cc(C)c(C)cc4CCC5)nn3)ccc2c1 was run?
A: 25 µg/mL (≈ 52.7 µM)

Q: With COc1ccc2cc(-c3cn(Cc4cc5c(nc4C)-c4ccccc4CCC5)nn3)ccc2c1 as the compound, how does the MIC read?
A: 25 µg/mL (≈ 56 µM)

Q: Cc1cc2c(cc1C)-c1nc(C)c(Cn3cc(-c4ccsc4)nn3)cc1CCC2 was tested. Which MIC did it give?
A: 12.5 µg/mL (≈ 31.2 µM)

Q: With Cc1nc2c(cc1Cn1cc(-c3ccccc3)nn1)CCCc1ccccc1-2 as the compound, how does the MIC read?
A: 25 µg/mL (≈ 68.2 µM)

Q: With Cc1nc2c(cc1Cn1cc(-c3ccsc3)nn1)CCCc1ccccc1-2 as the compound, how does the MIC read?
A: 12.5 µg/mL (≈ 33.6 µM)

Q: For Cc1ccc(-c2cn(Cc3cc4c(nc3C)-c3cc(C)c(C)cc3CCC4)nn2)cc1, which MIC is on record?
A: 12.5 µg/mL (≈ 30.6 µM)

Q: How did the MIC turn out when Cc1nc2c(cc1Cn1cc(-c3ccccn3)nn1)CCCc1ccccc1-2 was run?
A: 12.5 µg/mL (≈ 34 µM)
